According to PMC12584752, “Covalent fragment screening to inhibit the E3 ligase activity of bacterial NEL enzymes SspH1 and SspH2” (RSC Chemical Biology, 2025):

What was measured:
SspH1 (161–700) = SspH1 (161–700) (Salmonella typhimurium, UniProt D0ZVG2); assay: E2–Ub discharge assay; assay type: biochemical; design: Recombinant IpaH9.8 (21–545) and SspH1 (161–700) were incubated at 0.5 μM; His-tag (N, cleaved yes); made in house; host or cells: E. coli BL21; conditions: SspH1 pre-labelled with compound overnight at RT; UbcH5A–Ub-cy3 1 μM, 0–30 minutes
Source text: We next wanted to understand whether compounds 6 and 7 interfered with SspH1 E3 activity and turned to in vitro assays to assess E3 ligase activity. In the absence of substrate, NEL E3 ligases non-productively discharge ubiquitin from the E2–Ub thioester, a reaction that proceeds via an unstable E3-thioester intermediate.[27] This activity can be followed by E2–Ub discharge assays (Fig. 4A). We compared discharge activity of SspH1 with UbcH5A–Ub-cy3 (E2–Ub*) pre-treated with a DMSO control or compounds 6 or 7 (Fig. 4B). To ensure complete compound labelling, SspH1 was pre-incubated with the compounds overnight at room temperature, as opposed to at 4 °C which enabled us to study kinetics previously.
Fig. 4 SspH1 in vitro inhibition with compounds 6 and 7. (A) Discharge assay schematic; (B) E2–Ub discharge time course assay with SspH1 pre-treated with either DMSO or compounds 6 or 7. UbcH5A–Ub-cy3 (1 μM) was incubated at RT for 0–30 minutes with SspH1 (residues 161–700, 50 nM) which had been pre-labelled with 6 or 7 at RT overnight. (C) Substrate ubiquitination assay schematic; (D) PKN1 ubiquitination time course assay with SspH1 pre-treated with either DMSO or compounds 6 or 7. […]

SspH2 = biological target: T1, SspH2 (Salmonella typhimurium, UniProt D0ZPH9); assay: Intact LC-MS labelling dilution series; assay type: binding; conditions: dilution series 100–6.25 μM, 24 hours at 4 °C
T1 construct: Recombinant SspH1 (aa 161–700) and SspH2 (aa 166–783) were both characterised; His-tag (N, cleaved yes); made in house; host or cells: E. coli BL21
Protocol: Fig. 3 Validation of HTC hit compounds by intact MS. Labelling heatmaps of dilution series (100–6.25 μM) of compounds 4–10 with (A) WT SspH1 and (B) C492K SspH1. Labelling heatmaps of dilution series of (C) compound 6 and (D) compound 7 with bacterial and human ubiquitin binding proteins. Recombinant proteins were incubated at either 1.0 or 0.5 μM with 50 μM fragments for 24 hours at 4 °C, before fragment labelling was analysed by intact LC-MS. Bacterial proteins are shown in bold and human proteins in italic fonts. (E)–(H) Kinetics analyses: time courses (0–12 hours) of compound labelling (100–1.56 μM) of SspH1 and SspH2 (0.5 μM) for (E) SspH1 and compound 7, and (F) SspH2 and compound 6. Measurements were performed in technical triplicates. Labelling percentages were plotted against time in GraphPad Prism v.10, and curves fitted separately for each replicate using one-phase association, with constraints Y0 = 0 and plateau = highest labelling percentage. Graphs for SspH1 and compound 6, and SspH2 and compound 7 are shown in Fig. S4A and B. Rate constants (kobs, as given by Graphpad Prism calculated K values) were plotted against fragment concentration in triplicate for (G) SspH1 and (H) SspH2. Straight lines were fitted with constraint Yintercept = 0. For SspH2 kinetics, 100 μM kobs was outside the linear range. […]

T1 sequence (D0ZPH9 166-783): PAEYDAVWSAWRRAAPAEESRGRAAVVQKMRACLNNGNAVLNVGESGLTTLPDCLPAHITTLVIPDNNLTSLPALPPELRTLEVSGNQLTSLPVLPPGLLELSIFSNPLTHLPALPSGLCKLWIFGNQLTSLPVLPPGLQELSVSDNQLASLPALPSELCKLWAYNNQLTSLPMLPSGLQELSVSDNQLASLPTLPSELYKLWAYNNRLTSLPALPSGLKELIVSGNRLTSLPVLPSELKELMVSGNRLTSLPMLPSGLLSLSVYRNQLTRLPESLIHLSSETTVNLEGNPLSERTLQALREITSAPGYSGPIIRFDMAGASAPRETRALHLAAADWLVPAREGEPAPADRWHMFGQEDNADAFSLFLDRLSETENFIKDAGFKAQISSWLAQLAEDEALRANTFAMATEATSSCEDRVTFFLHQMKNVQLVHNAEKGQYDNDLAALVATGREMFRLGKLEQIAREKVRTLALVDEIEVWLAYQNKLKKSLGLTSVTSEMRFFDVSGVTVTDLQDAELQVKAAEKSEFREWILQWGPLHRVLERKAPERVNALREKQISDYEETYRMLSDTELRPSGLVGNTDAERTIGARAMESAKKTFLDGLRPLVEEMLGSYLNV
Chain of SspH1 (161–700) (D0ZVG2 161-700): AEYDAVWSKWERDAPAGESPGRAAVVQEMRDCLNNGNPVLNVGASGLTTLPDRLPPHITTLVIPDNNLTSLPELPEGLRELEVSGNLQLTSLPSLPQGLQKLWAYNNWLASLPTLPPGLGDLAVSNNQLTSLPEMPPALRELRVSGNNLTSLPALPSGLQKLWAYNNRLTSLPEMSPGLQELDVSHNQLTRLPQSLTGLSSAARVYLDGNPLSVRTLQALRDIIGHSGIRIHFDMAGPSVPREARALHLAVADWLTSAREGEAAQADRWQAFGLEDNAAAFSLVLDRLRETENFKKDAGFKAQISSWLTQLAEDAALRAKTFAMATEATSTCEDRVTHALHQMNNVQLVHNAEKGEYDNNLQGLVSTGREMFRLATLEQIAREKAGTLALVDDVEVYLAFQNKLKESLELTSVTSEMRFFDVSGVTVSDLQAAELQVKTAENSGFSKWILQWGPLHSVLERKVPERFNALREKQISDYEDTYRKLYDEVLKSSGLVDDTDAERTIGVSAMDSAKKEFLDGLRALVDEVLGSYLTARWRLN

| Structure (SMILES) | SspH1 E2–Ub discharge activity (SspH1 (161–700)) | labelling of SspH2 (SspH2) |
| --- | --- | --- |
| Cl.O=C(CCl)N1CCC(n2c(-c3ccc(C(F)(F)F)cc3)nc3ccccc32)CC1 [compound 7] | completely abrogated | very strong labelling |
| Cc1cc(-c2nc3ccccc3n2C2CCN(C(=O)CCl)CC2)cc(C)c1O.Cl [compound 6] | completely abrogated | very strong labelling |
